From patent US20230148214A1, “INDAZOLES AND AZAINDAZOLES AS LRRK2 INHIBITORS” (ESCAPE Bio, Inc., priority 2020, published 2023)

Columns and labels:
[1] = molecular target: T1, LRRK2 WT (Homo sapiens, UniProt Q5S007); assay: LRRK2 Kinase Activity Assay (LanthaScreen TR-FRET), wild type; assay type: biochemical; details: recombinant wild type LRRK2, 25 μM ATP, 400 nM LRRKtide, 60 min; class symbols
T1 construct: purchased Life Technologies PR8604B
How it was run: (§1)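 Recombinant wild-type or G2019S LRRK2 incubated with fluorescein-labeled LRRKtide (ERM-based) peptide, ATP and serially diluted compound for 60 min at room temperature.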

[2] = molecular target: T2, LRRK2 G2019S (Homo sapiens, UniProt Q5S007, G2019S); assay: LRRK2 Kinase Activity Assay (LanthaScreen TR-FRET), G2019S; assay type: biochemical; details: recombinant G2019S-LRRK2, 25 μM ATP, 400 nM LRRKtide, 60 min; class symbols
T2 construct: purchased Life Technologies PV4881
How it was run: as §1

T1 sequence (Q5S007 whole entry): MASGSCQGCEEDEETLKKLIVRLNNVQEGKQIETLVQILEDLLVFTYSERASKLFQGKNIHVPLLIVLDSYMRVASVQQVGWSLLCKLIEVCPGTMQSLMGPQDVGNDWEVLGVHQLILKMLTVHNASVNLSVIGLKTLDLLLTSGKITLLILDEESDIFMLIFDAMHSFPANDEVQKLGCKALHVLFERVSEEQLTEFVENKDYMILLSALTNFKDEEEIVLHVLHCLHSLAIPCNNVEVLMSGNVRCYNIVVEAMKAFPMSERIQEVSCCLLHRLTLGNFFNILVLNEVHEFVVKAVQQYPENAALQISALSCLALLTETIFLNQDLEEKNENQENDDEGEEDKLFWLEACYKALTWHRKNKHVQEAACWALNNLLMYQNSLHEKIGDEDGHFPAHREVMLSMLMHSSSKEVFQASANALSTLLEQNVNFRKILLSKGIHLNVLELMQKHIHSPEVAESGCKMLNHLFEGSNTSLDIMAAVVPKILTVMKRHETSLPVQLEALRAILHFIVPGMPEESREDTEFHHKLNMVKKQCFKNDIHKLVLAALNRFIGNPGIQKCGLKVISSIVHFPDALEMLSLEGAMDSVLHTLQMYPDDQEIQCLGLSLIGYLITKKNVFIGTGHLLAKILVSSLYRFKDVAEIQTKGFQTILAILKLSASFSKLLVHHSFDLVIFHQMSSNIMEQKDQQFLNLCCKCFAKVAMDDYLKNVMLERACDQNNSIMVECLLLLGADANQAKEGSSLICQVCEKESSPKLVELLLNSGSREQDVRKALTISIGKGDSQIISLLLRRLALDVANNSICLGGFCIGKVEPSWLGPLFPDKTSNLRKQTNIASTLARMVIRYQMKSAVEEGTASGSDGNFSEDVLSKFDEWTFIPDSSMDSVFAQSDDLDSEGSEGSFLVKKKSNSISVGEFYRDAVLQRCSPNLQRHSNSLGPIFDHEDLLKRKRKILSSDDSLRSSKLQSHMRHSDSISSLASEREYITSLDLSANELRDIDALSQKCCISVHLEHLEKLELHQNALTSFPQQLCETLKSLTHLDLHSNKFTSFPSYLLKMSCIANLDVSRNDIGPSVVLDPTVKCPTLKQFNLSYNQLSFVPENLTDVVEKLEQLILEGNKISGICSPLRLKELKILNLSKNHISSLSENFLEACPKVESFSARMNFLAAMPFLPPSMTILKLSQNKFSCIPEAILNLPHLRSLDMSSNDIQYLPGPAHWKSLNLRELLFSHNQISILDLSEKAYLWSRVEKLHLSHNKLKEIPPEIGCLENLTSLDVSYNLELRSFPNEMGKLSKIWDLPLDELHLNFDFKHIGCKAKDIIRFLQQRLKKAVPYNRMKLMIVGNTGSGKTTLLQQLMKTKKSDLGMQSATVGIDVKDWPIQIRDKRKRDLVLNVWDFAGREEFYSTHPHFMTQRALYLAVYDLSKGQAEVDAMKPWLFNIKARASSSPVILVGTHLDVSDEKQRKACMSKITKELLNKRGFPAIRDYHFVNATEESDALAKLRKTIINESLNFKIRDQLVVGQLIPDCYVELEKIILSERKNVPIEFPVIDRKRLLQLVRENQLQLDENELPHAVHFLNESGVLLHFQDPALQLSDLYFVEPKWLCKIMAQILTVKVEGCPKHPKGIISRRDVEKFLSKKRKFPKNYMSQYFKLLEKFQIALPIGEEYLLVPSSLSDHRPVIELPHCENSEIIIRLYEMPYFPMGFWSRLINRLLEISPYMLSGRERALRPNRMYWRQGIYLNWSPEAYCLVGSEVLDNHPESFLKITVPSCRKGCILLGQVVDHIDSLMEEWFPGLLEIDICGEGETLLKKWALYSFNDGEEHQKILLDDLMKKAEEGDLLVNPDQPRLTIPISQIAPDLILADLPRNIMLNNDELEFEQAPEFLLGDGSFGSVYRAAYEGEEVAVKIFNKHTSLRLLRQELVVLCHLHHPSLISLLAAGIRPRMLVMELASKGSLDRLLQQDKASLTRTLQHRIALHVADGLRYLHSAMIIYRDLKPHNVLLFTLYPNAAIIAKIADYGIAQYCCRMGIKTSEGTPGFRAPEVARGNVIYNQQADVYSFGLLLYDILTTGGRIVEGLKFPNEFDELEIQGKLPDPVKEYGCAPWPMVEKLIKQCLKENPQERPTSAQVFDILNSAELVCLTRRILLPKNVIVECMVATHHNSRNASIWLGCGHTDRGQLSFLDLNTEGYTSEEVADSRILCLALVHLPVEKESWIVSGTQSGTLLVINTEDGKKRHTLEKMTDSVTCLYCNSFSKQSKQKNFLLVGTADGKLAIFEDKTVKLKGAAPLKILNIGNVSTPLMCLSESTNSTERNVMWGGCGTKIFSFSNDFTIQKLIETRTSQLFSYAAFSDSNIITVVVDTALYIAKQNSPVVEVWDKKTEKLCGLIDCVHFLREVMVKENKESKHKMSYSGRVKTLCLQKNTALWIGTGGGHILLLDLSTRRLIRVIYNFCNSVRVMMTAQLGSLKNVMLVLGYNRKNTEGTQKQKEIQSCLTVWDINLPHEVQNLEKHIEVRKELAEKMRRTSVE
T2 sequence (Q5S007 whole entry G2019S): as the sequence (Q5S007 whole entry) above, with G2019S counted along it

Structure (SMILES) | IC50 [1] | IC50 [2]
CC1(C)Cc2cc(C#N)cnc2[C@H]1Nc1ccc2[nH]nc(-c3cnco3)c2c1 (single isomer, unassigned) [Example 172, enantiomer 2, 6,6-Dimethyl-7-[[3-(1,3-oxazol-5-yl)-1H-indazol-5-yl]amino]-5,7-dihydrocyclopenta[b]pyridine-3-carbonitrile] | < 100 nM | < 100 nM
C[C@H]1CCc2cc(C#N)ccc2[C@H]1Nc1ccc2[nH]nc(-c3cnco3)c2c1 (single isomer, unassigned) [Example 173, enantiomer 1, cis-6-Methyl-5-((3-(oxazol-5-yl)-1H-indazol-5-yl)amino)-5,6,7,8-tetrahydronaphthalene-2-carbonitrile] | < 100 nM | < 100 nM
C[C@H]1CCc2cc(C#N)ccc2[C@H]1Nc1ccc2[nH]nc(-c3cnco3)c2c1 (single isomer, unassigned) [Example 173, enantiomer 2, cis-6-Methyl-5-((3-(oxazol-5-yl)-1H-indazol-5-yl)amino)-5,6,7,8-tetrahydronaphthalene-2-carbonitrile] | 100 to 1000 nM | < 100 nM
C[C@@H]1CCc2cc(C#N)ccc2[C@H]1Nc1ccc2[nH]nc(-c3cnco3)c2c1 (single isomer, unassigned) [Example 174, enantiomer 1, trans-6-Methyl-5-((3-(oxazol-5-yl)-1H-indazol-5-yl)amino)-5,6,7,8-tetrahydronaphthalene-2-carbonitrile] | < 100 nM | < 100 nM
N#Cc1ccc2c(c1)CC[C@@H]2Oc1ccc2[nH]nc(I)c2c1 [Example 13, 1-((3-Iodo-1H-indazol-5-yl)oxy)-2,3-dihydro-1H-indene-5-carbonitrile] | 100 to 1000 nM | < 100 nM
N#Cc1cnc2c(c1)CC(F)(F)C2Nc1ccc2[nH]nc(-c3cnco3)c2c1 (stereo not drawn) [Example 34, 6,6-Difluoro-7-((3-(oxazol-5-yl)-1H-indazol-5-yl)amino)-6,7-dihydro-5H-cyclopenta[b]pyridine-3-carbonitrile] | 100 to 1000 nM | < 100 nM

Second part, the compound after the results:

IC50 [1] | IC50 [2] | Structure (SMILES)
100 to 1000 nM | < 100 nM | C[C@@H]1CCc2cc(C#N)ccc2[C@H]1Nc1ccc2[nH]nc(-c3cnco3)c2c1 (single isomer, unassigned) [Example 174, enantiomer 2, trans-6-Methyl-5-((3-(oxazol-5-yl)-1H-indazol-5-yl)amino)-5,6,7,8-tetrahydronaphthalene-2-carbonitrile]
100 to 1000 nM | < 100 nM | N#Cc1ccc2c(c1)CCC2Nc1ccc2[nH]nc(-c3ccoc3)c2c1 (stereo not drawn) [Example 10, 1-((3-(Furan-3-yl)-1H-indazol-5-yl)amino)-2,3-dihydro-1H-indene-5-carbonitrile]
< 100 nM | < 100 nM | N#Cc1ccc2c(c1)CCC[C@@H]2Nc1ccc2[nH]nc(-c3ccc4ncsc4c3)c2c1 [Example 59, 5-((3-(Benzo[d]thiazol-6-yl)-1H-indazol-5-yl)amino)-5,6,7,8-tetrahydronaphthalene-2-carbonitrile]
